Read-outs that look alike come from different tables or passages of the source.
Key:
[1] = Plasma and brain concentrations (PK) in healthy mice after oral dosing; assay type: in vivo, Nu/Nu mice; conditions: 30 mg/kg, oral; for Kp / Cmax / AUC(0-inf) / AUC(0-t): male, Nu/Nu, mouse, po; for Kp: brain/plasma; for Cmax / AUC(0-inf) / AUC(0-t): plasma; for AUC(0-inf): read-out: AUCInf, plasma; for AUC(0-t): read-out: AUCLast, plasma
Procedure: Healthy male Nu/Nu mice were treated orally with either (i) a single dose of 30 mg/kg Compound of formula (I) ([…], 3 mice per time-point), (ii) 30 mg/kg of Compound of formula (I) given once a day for four consecutive days (27 mice in total, 3 mice per time-point), (iii) 30 mg/kg of AZD-1775 (adavosertib, purchased from Combi-Blocks, San Diego, USA) given twice a day for three consecutive days and once on day four (27 mice in total, 3 mice per time-point), (iv) or 80 mg/kg of Zn-c3 (purchased from EOS Med Chem, Jina City, China) given once a day for four consecutive days (27 mice in total, 3 mice per time-point). The doses used for each compound have previously been reported as active dose levels. Compound of formula (I) was formulated as a suspension in 0.5% methylcellulose with 1% Tween 80 and administered at a concentration of 3.0 mg/mL. […] The dosing volume of all formulations was 10 mL/kg. At designated time-points the mice were euthanized by carbon dioxide inhalation, blood samples were collected by cardiac puncture into K2EDTA containing tubes. The tubes were inverted several times, placed on ice and centrifuged within 30 min of collection (4° C. for 5 min at 6000 rpm) to obtain plasma. The plasma samples were snap frozen in dry ice and stored at −80° C. until analysis. The brain was collected, weighed and snap frozen in dry ice until further analysis. To obtain brain homogenates, firstly water was added to each brain (brain weight:water volume=1:4) then the brain was homogenized with a H-speed dispersator (time procedure: homogenizing for 10 s and interval of 10 s per time, total 3-5 times; cleaning procedure for dispersator: Water-Methanol-Ethanol-Water, 10 s each). The brain homogenate samples were transferred to individual tubes and stored at −80° C. prior to analysis. The mouse plasma and brain samples were analysed as follows. For each analytical batch of plasma and brain samples, the standard and quality control (QC) samples were freshly prepared in blank male Nu/Nu mouse plasma (with K2EDTA anticoagulant) and brain homogenate. To an aliquot of each standard, QC, control blank and study samples, internal standard (^13CD6-Compound of formula (I) for Compound of formula (I), terfenadine for AZD-1775 and Zn-c3) in methanol/acetonitrile (1:1, v/v) was added. The samples were mixed for 1 minute and centrifuged at 4000 rpm at 4° C. for 15 minutes. Supernatants were transferred and diluted in MeOH/water (1:1, v/v, with 0.1% FA) prior to LC-MS/MS injection. Chromatographic separation was achieved on an Shimadzu LC-20AD using a Kinetex 2.6μ C18 100A column (50 mm*3.00 mm) for Compound of formula (I) and AZD-1775 samples and a ACE 5 C4 column (50 mm*2.1 mm) for Zn-c3 samples with gradient elution using the following conditions: flow rate: 0.7 mL/min; run time: 3.0 min; mobile phase: A: 5 mM NH4OAc (0.1% FA), B: Acetonitrile (0.1% FA). Detection was accomplished with an AB Sciex 5500 utilizing electrospray MS/MS in positive ion multiple reaction monitoring mode (MRM). The MRM channels were 511.29/98 for Compound of formula (I), 501.47/442.20 for AZD-1775 and 527.36/468.10 for Zn-c3. The MRM channels of internal standard were 518.17/102.10 (^13CD6-Compound of formula (I)) for Compound of formula (I), 472.40/436.40 (terfenadine) for AZD-1775 and Zn-c3. The measured plasma and brain concentrations at each time-point, the nominal sample collection time, and intended dosages were used for pharmacokinetic analysis. The PK parameters of all study compounds were determined by non-compartmental analysis using WinNonlin Version 8.0 (Pharsight).

SF188 cells = test: ATP-based cell viability assay (CellTiter-Glo 2.0) in control and ATRX-deficient SF188 cells
Procedure: SF188 cells were transfected with ATRX siRNA (siATRX_1 or siATRX_2) either individually (A) or as a pool (B and C) or control siRNA (siCon) and ATRX deficiency assessed by determining relative ATRX protein levels by western blotting. Control and ATRX-deficient SF188 cells were then treated with compound of formula (I) at a range of concentrations between 0 and 1.5 uM (FIG. 7A) and at 400 nM (FIG. 7B) and drug sensitivities were assessed via an ATP-based cell viability assay or in colony formation assay.
For cell viability assessment, SF188 cells were seeded in 96-well culture plates at 100-500 cells in 100 μl of culture media per well. After overnight incubation, 100 μl of culture media containing compound of formula (I) was added to each well at the desired final concentration. After 72 h, cell viability was assessed by CellTiter-Glo 2.0 according to the manufacturer's instructions. Each condition was tested in triplicate or quadruplicate, and the average viability is presented as a percentage of vehicle-treated cells. For colony formation assessment (FIG. 7C), SF188 cells were seeded on a 6-well plate at 100 cells per well in 1 ml of culture media. After overnight incubation, 1 ml of culture media containing compound of formula (I) was added to each well at the desired final concentrations up to 400 nM. At 10 days post-treatment, cell colonies were fixed with 70% ethanol for 30 min, washed with distilled water, and stained with Coomassie Blue. The number of colonies in each well was counted manually. Each colony consisted of >50 cells (corresponds to six doublings from a single cell). Colony-forming efficiency was determined by normalizing the colony numbers to the vehicle-treated cells.

For `Cc1cc(Nc2ncc3c(n2)N(C)CN(c2c(Cl)cccc2Cl)C3=O)ccc1C1CCN(C)CC1` [Compound of formula (I)], the “AUCInf, brain” value ([1]; qd for four days, day 4) was 31763 ng·h/g, the “AUCLast, brain” value ([1]; qd for four days, day 4) was 31610 ng·h/g and the “Cmax, brain” value ([1]; qd for four days, day 4) was 1963 ng/g. The “AUCInf, brain” value ([1]; single dose, day 1) was 37471 ng·h/g, the “AUCLast, brain” value ([1]; single dose, day 1) was 37368 ng·h/g and the “Cmax, brain” value ([1]; single dose, day 1) was 3557 ng/g. The Kp ([1]; qd for four days, day 4, read-out: Brain to plasma ratio based on AUCInf) was 0.489, the Kp ([1]; qd for four days, day 4, read-out: Brain to plasma ratio based on AUCLast) was 0.488 and the Kp ([1]; qd for four days, day 4, read-out: Brain to plasma ratio based on Cmax) was 0.498. The Kp ([1]; single dose, day 1, read-out: Brain to plasma ratio based on AUCInf) was 0.44, the Kp ([1]; single dose, day 1, read-out: Brain to plasma ratio based on AUCLast) was 0.439 and the Kp ([1]; single dose, day 1, read-out: Brain to plasma ratio based on Cmax) was 0.505. The Cmax ([1]; qd for four days, day 4) was 3940 ng/mL, the AUC(0-inf) ([1]; qd for four days, day 4) was 65000 ng·h/mL and the AUC(0-t) ([1]; qd for four days, day 4) was 64800 ng·h/mL. It also gave a Cmax ([1]; single dose, day 1) of 7040 ng/mL, an AUC(0-inf) ([1]; single dose, day 1) of 85200 ng·h/mL and an AUC(0-t) ([1]; single dose, day 1) of 85100 ng·h/mL. The “Viability of SF188 cells” value (SF188 cells; 0 to 1.5 uM, 72 h, CellTiter-Glo 2.0) was “significantly reduced the viability of SF188 cells”, the “Cell viability of ATRX-deficient SF188 cells” value (SF188 cells; 400 nM, p<0.01) was “significantly reduced” and the “IC50 in SF188 cells with ATRX siRNA relative to control siRNA” value (SF188 cells; cell viability, 72 h) was “less than half of control siRNA”.
